Source: publication PMC8931498 (Frontiers in Pharmacology, 2022)
Read-outs that look alike come from different tables or passages of the source.

Columns and labels:
[1] = tested on: human ABCB1; design: method as in Tournier et al. (2010); details: hABCB1-transfected HEK293 cells, flow cytometric assay; ref Tournier et al. (2010); cited from earlier work
[2] = tested on: human ABCG2; design: method as in Tournier et al. (2010); details: hABCG2-transfected HEK293 cells, flow cytometric assay; ref Tournier et al. (2010); cited from earlier work
[3] = Plasma pharmacokinetics over 2 h after oral ibogaine in wild-type, Abcg2-/- and Abcb1a/1b;Abcg2-/- mice; format: in vivo; details: for Fold increase AUC0-2h: oral 10 mg/kg ibogaine; for Tmax / Cmax / AUC(0-t): mouse, plasma, po, 10 mg/kg; for AUC(0-t): read-out: AUC0-2h
Method: (§1) In each experiment, six to seven mice were used per strain. […] To reduce variation in absorption upon oral administration, mice were fasted for 2–3 h before dosing. […] At either 2 or 8 h after dosing, mice were deeply anesthetized with isoflurane (3%), followed by cardiac puncture to collect blood (at least 600 μL) in Eppendorf tubes using heparin as an anticoagulant. The mice were then sacrificed by cervical dislocation, and tissues including the brain, liver (without gallbladder), kidneys, spleen, small intestine together with the fecal content (SIWC), heart, and subcutaneous inguinal white adipose tissue were collected and weighed. For the 2 h experiment, the gallbladder with content was also (separately) collected in an Eppendorf tube and weighed. Plasma was obtained from blood samples by centrifugation at 9,000 g for 6 min at 4 °C. Tissue homogenates (except gallbladder) were obtained using the Fast Prep-24 5G homogenizer (MP Biomedicals Inc., Santa Ana, CA, United States). Before homogenization, Bovine Serum Albumin (BSA, Fraction V) was dissolved at a concentration of 2% (w/v) in distilled water. Three mL of ice-cold 2% BSA were added to liver and SIWC; 2 ml to kidneys; 1 ml to brain, spleen, and heart; and 2–3 ml to the white adipose tissue (depending on the tissue weight). For the gallbladder, 150 μL of 2% BSA was added; then, the samples were centrifuged (9,000 x g, 4°C, 6 min), and only the supernatant was collected for analysis. Both plasma and tissue samples were kept at −70°C in amber-colored Eppendorf tubes until analysis.
(§2) A volume of 50 µL human plasma sample, a 5-fold diluted mouse plasma sample (10 uL + 40 uL control human plasma), or 100 µL homogenized tissue sample were processed. […] To the 50 uL plasma samples, 20 uL of a working solution containing both internal standards at a concentration of 10 ng/ml in methanol (WIS10) was added. Sample pre-treatment involved protein precipitation with 150 uL of acetonitrile-methanol (1:1, v/v). For the tissue homogenates (100 uL sample aliquots), 40 uL of WIS10 was added, and 300 uL precipitation reagent as sample cleanup. After centrifuging the samples (10 min, 4°C, 15,000 x g), 100 µL of the supernatant was transferred to an amber-colored autosampler vial with insert. Then 100 µL of 4 mM ammonium formate pH 3.5 in water was added, and after vortex mixing, the extracts were injected (5 uL) onto a UPLC system (Acquity UPLC I-Class IVD system, Waters, Milford, MA, United States) equipped with an Acquity UPLC HSS T3 Column (150 × 2.1 mm ID, 1.8 µm). The tray temperature was set to 5 ± 3°C, and the analytical column was kept at 50°C. Gradient elution was applied using 4 mM ammonium formate pH 3.5 in water as eluent A and acetonitrile as eluent B. The flow rate was 500 μL/min, and the total runtime was 6 min. Detection was performed in the positive ion mode on a Quadrupole MS/MS detector with a Turbo Ion Spray Interface (QTRAP5500, Sciex, Framingham, MA, United States). The ionspray voltage was 2250 V, and the spray temperature was 700 °C. Gas settings, potentials, and collision energies were optimized by infusion of the analytes and by flow injection analysis.
(§3) Pharmacokinetic parameters were calculated by non-compartmental methods using the Microsoft Excel menu-driven add-in program PKsolver ([Zhang et al., 2010]). The area under the plasma concentration-time curve (AUC) was calculated with the trapezoidal rule without extrapolating to infinity. The peak plasma concentration (Cmax) and the time to reach Cmax (Tmax) were estimated from the original data. […] GraphPad Prism 9 (GraphPad Software Inc., San Diego, CA, United States) was used to plot the data and to perform statistical analysis. To determine whether the most extreme value in a data set was a significant outlier from the rest, the Grubbs’s (or extreme studentized variate) test was applied (α = 0.05). All data were log-transformed before statistical analysis. […]

[4] = Plasma pharmacokinetics over 2 h after oral ibogaine in wild-type, Oatp1a/1b-/-, Oatp1a/1b-/-;1B1tg and Oatp1a/1b-/-;1B3tg mice; format: in vivo; details: for Fold increase AUC0-2h: oral 10 mg/kg ibogaine; for Cmax / Tmax / AUC(0-t): female, mouse, plasma, po, 10 mg/kg; for AUC(0-t): read-out: AUC0-2h
Method: as §1, §2, §3

[5] = Plasma pharmacokinetics over 8 h after oral ibogaine in wild-type, Cyp3a-/- and Cyp3aXAV mice; format: in vivo; details: female, mouse, 10 mg/kg; for AUC(0-t): read-out: AUC0-8h
Method: as §1, §2, §3

[6] = Tissue distribution 2 h after oral ibogaine in wild-type, Abcg2-/- and Abcb1a/1b;Abcg2-/- mice; format: in vivo; details: for fold decrease in total amount (% of dose) in SIWC corrected for plasma AUC over 2 h: small intestine with fecal content, oral 10 mg/kg ibogaine; for Kp at 2 h: mouse, po, 10 mg/kg
Method: as §1, §2, §3

[7] = Tissue accumulation 2 h after oral ibogaine in wild-type and Oatp1a/1b-deficient mouse strains; format: in vivo, mice; details: for fold reduction in liver accumulation: tissue concentration relative to plasma AUC0-2h, oral 10 mg/kg ibogaine
Method: as §1
A volume of 50 µL human plasma sample, a 5-fold diluted mouse plasma sample (10 uL + 40 uL control human plasma), or 100 µL homogenized tissue sample were processed. […] To the 50 uL plasma samples, 20 uL of a working solution containing both internal standards at a concentration of 10 ng/ml in methanol (WIS10) was added. Sample pre-treatment involved protein precipitation with 150 uL of acetonitrile-methanol (1:1, v/v). For the tissue homogenates (100 uL sample aliquots), 40 uL of WIS10 was added, and 300 uL precipitation reagent as sample cleanup. After centrifuging the samples (10 min, 4°C, 15,000 x g), 100 µL of the supernatant was transferred to an amber-colored autosampler vial with insert. […]
Pharmacokinetic parameters were calculated by non-compartmental methods using the Microsoft Excel menu-driven add-in program PKsolver ([Zhang et al., 2010]). The area under the plasma concentration-time curve (AUC) was calculated with the trapezoidal rule without extrapolating to infinity. […]

[8] = design: method as in Luz and Mash, 2021; details: ref Luz and Mash, 2021; cited from earlier work
[9] = design: method as in Mačiulaitis et al., 2008; details: in 24 h in rats; ref Mačiulaitis et al., 2008; cited from earlier work
[10] = Abcb1a/1b;Abcg2-/- mice vs wild-type
[11] = Oatp1a/1b-/-;1B1tg mice vs wild-type
[12] = Oatp1a/1b-/-;1B3tg mice vs wild-type
[13] = wild-type, inguinal white adipose tissue, read-out: adipose tissue-to-plasma distribution ratio

Compound: ibogaine
- inhibition of human ABCB1 [1]: significantly inhibited in a concentration-dependent manner
- inhibition of human ABCG2 [2]: significantly inhibited in a concentration-dependent manner

Compound: CCC1CC2CC3c4[nH]c5ccc(OC6OC(C(=O)O)C(O)C(O)C6O)cc5c4CCN(C2)C13 (centres unmarked) [Noribogaine glucuronide, noribogaine glucuronide]
- Fold increase AUC0-2h [3, 10]: 1.5
- Tmax ([3]; Abcb1a/1b;Abcg2-/-): 2 h
- Fold increase AUC0-2h ([3]; Abcg2-/- mice vs wild-type): 1.1
- Tmax ([3]; Abcg2-/-): 2 h
- Cmax ([3]; female, Abcb1a/1b;Abcg2-/-): 156 ± 31 ng/mL
- AUC(0-t) ([3]; female, Abcb1a/1b;Abcg2-/-): 240 ± 46 ng·h/mL
- Cmax ([3]; female, Abcg2-/-): 122 ± 27 ng/mL
- AUC(0-t) ([3]; female, Abcg2-/-): 184 ± 32 ng·h/mL
- Cmax ([3]; female, wild-type): 125 ± 30 ng/mL
- Tmax ([3]; female, wild-type): 2 h
- AUC(0-t) ([3]; female, wild-type): 164 ± 12 ng·h/mL
- Fold increase AUC0-2h ([3]; wild-type mice (reference)): 1.0
- Fold increase AUC0-2h ([4]; Oatp1a/1b-/- mice vs wild-type): 1.5
- Fold increase AUC0-2h [4, 11]: 1.8
- Fold increase AUC0-2h [4, 12]: 1.4
- Cmax ([4]; Oatp1a/1b-/-): 155 ± 20 ng/mL
- Tmax ([4]; Oatp1a/1b-/-): 2 h
- AUC(0-t) ([4]; Oatp1a/1b-/-): 244 ± 30 ng·h/mL
- Cmax ([4]; Oatp1a/1b-/-;1B1tg): 199 ± 59 ng/mL
- Tmax ([4]; Oatp1a/1b-/-;1B1tg): 1 h
- AUC(0-t) ([4]; Oatp1a/1b-/-;1B1tg): 294 ± 65 ng·h/mL
- Cmax ([4]; Oatp1a/1b-/-;1B3tg): 162 ± 25 ng/mL
- Tmax ([4]; Oatp1a/1b-/-;1B3tg): 1 h
- AUC(0-t) ([4]; Oatp1a/1b-/-;1B3tg): 236 ± 24 ng·h/mL
- Cmax ([4]; wild-type): 125 ± 30 ng/mL
- Tmax ([4]; wild-type): 2 h
- AUC(0-t) ([4]; wild-type): 164 ± 12 ng·h/mL
- Fold increase AUC0-2h ([4]; wild-type mice (reference)): 1.0
- Cmax ([5]; Cyp3a-/-): 114 ± 24 ng/mL
- Tmax ([5]; Cyp3a-/-): 1 h
- AUC(0-t) ([5]; Cyp3a-/-): 422 ± 110 ng·h/mL
- Cmax ([5]; Cyp3aXAV): 123 ± 28 ng/mL
- Tmax ([5]; Cyp3aXAV): 1 h
- AUC(0-t) ([5]; Cyp3aXAV): 536 ± 117 ng·h/mL
- Cmax ([5]; wild-type): 70 ± 13.6 ng/mL
- Tmax ([5]; wild-type): 1 h
- AUC(0-t) ([5]; wild-type): 219 ± 50 ng·h/mL
- fold decrease in liver-to-plasma ratio ([6]; Abcb1a/1b;Abcg2-/- mice compared to WT, 2 h after oral 10 mg/kg ibogaine): 1.7 fold
- fold decrease in total amount (% of dose) in SIWC corrected for plasma AUC over 2 h ([6]; Abcb1a/1b;Abcg2-/- mice compared to WT): 2.1 fold
- gallbladder-to-plasma ratio, fold lower than in WT ([6]; Abcb1a/1b;Abcg2-/- vs WT mice, not statistically significant, 2 h after oral 10 mg/kg ibogaine): more than 2 fold
- fold decrease in total amount (% of dose) in SIWC corrected for plasma AUC over 2 h ([6]; Abcg2-/- mice compared to WT): 1.5 fold
- Kp at 2 h [6, 13]: 0.058
- gallbladder-to-plasma ratio, fold higher than liver-to-plasma ratio ([7]; WT mice, 2 h after oral 10 mg/kg ibogaine): about 10 fold

Compound: CCC1CC2CC3c4[nH]c5ccc(O)cc5c4CCN(C2)C13 (centres unmarked) [Noribogaine, 12-hydroxyibogamine]
- Fold increase AUC0-2h [3, 10]: 1.2
- Tmax ([3]; Abcb1a/1b;Abcg2-/-): 0.25 h
- Fold increase AUC0-2h ([3]; Abcg2-/- mice vs wild-type): 1.1
- Tmax ([3]; Abcg2-/-): 0.25 h
- Cmax ([3]; female, Abcb1a/1b;Abcg2-/-): 276 ± 98 ng/mL
- AUC(0-t) ([3]; female, Abcb1a/1b;Abcg2-/-): 419 ± 126 ng·h/mL
- Cmax ([3]; female, Abcg2-/-): 233 ± 61 ng/mL
- AUC(0-t) ([3]; female, Abcg2-/-): 381 ± 108 ng·h/mL
- Cmax ([3]; female, wild-type): 208 ± 70 ng/mL
- Tmax ([3]; female, wild-type): 0.5 h
- AUC(0-t) ([3]; female, wild-type): 339 ± 107 ng·h/mL
- Fold increase AUC0-2h ([3]; wild-type mice (reference)): 1.0
- Fold increase AUC0-2h ([4]; Oatp1a/1b-/- mice vs wild-type): 1.4
- Fold increase AUC0-2h [4, 11]: 1.7
- Fold increase AUC0-2h [4, 12]: 1.5
- Cmax ([4]; Oatp1a/1b-/-): 290 ± 73 ng/mL
- Tmax ([4]; Oatp1a/1b-/-): 0.5 h
- AUC(0-t) ([4]; Oatp1a/1b-/-): 458 ± 110 ng·h/mL
- Cmax ([4]; Oatp1a/1b-/-;1B1tg): 417 ± 95 ng/mL
- Tmax ([4]; Oatp1a/1b-/-;1B1tg): 0.25 h
- AUC(0-t) ([4]; Oatp1a/1b-/-;1B1tg): 578 ± 86 ng·h/mL
- Cmax ([4]; Oatp1a/1b-/-;1B3tg): 411 ± 107 ng/mL
- Tmax ([4]; Oatp1a/1b-/-;1B3tg): 0.25 h
- AUC(0-t) ([4]; Oatp1a/1b-/-;1B3tg): 519 ± 100 ng·h/mL
- Cmax ([4]; wild-type): 209 ± 70 ng/mL
- Tmax ([4]; wild-type): 0.5 h
- AUC(0-t) ([4]; wild-type): 339 ± 107 ng·h/mL
- Fold increase AUC0-2h ([4]; wild-type mice (reference)): 1.0
- Cmax ([5]; Cyp3a-/-): 280 ± 75 ng/mL
- Tmax ([5]; Cyp3a-/-): 0.5 h
- AUC(0-t) ([5]; Cyp3a-/-): 1070 ± 320 ng·h/mL
- Cmax ([5]; Cyp3aXAV): 328 ± 75 ng/mL
- Tmax ([5]; Cyp3aXAV): 0.5 h
- AUC(0-t) ([5]; Cyp3aXAV): 1400 ± 320 ng·h/mL
- Cmax ([5]; wild-type): 217 ± 37 ng/mL
- Tmax ([5]; wild-type): 0.5 h
- AUC(0-t) ([5]; wild-type): 655 ± 220 ng·h/mL
- Kp at 2 h ([6]; Abcb1a/1b;Abcg2-/-, brain, read-out: brain-to-plasma ratio): 8.3
- liver-to-plasma ratios, times higher than gallbladder-to-plasma ratios ([6]; WT, Abcg2-/- and Abcb1a/1b;Abcg2-/- mice, 2 h after oral 10 mg/kg ibogaine): at least 3 times
- absolute brain concentrations, fold higher than those of ibogaine ([6]; wild-type mice, both at 2 and 8 h after oral 10 mg/kg ibogaine): ≥ 100 fold
- Kp at 2 h ([6]; wild-type, brain, read-out: brain-to-plasma ratio): 7.2
- Kp at 2 h [6, 13]: 2.8
- fold reduction in liver accumulation ([7]; Oatp1a/1b-/- mice compared to WT): 1.6 fold
- fold reduction in liver accumulation ([7]; Oatp1a/1b-/-;1B1tg mice compared to WT): 1.8 fold
- fold reduction in liver accumulation ([7]; Oatp1a/1b-/-;1B3tg mice compared to WT): 2.1 fold
- half-life in plasma [8]: 24 to 30 h
- excreted via urine and feces, % of the administered dose [9]: 60–70%
